Assay results from US6090605A, “Purified porcine kidney L-fucose kinase” (The Board of Trustees of the University of Arkansas, priority 1998, dated 2000).
Values belong to the compound of their own block, whether it stands above or below them.

Assays:
pig kidney fucokinase [1] = biological target: T1, pig kidney fucokinase (Sus scrofa, UniProt I3LTC2); test: Effect of metal ions on fucokinase activity; assay type: biochemical; conditions: for effect on activity when added to incubations containing Mg++ (in words): metal ion at 1 mM
T1 construct: L-Fucokinase was purified to apparent homogeneity from the cytosolic fraction of pig kidney; from tissue; host or cells: pig kidney, cytosolic fraction
T1 sequence (I3LTC2 1-1083): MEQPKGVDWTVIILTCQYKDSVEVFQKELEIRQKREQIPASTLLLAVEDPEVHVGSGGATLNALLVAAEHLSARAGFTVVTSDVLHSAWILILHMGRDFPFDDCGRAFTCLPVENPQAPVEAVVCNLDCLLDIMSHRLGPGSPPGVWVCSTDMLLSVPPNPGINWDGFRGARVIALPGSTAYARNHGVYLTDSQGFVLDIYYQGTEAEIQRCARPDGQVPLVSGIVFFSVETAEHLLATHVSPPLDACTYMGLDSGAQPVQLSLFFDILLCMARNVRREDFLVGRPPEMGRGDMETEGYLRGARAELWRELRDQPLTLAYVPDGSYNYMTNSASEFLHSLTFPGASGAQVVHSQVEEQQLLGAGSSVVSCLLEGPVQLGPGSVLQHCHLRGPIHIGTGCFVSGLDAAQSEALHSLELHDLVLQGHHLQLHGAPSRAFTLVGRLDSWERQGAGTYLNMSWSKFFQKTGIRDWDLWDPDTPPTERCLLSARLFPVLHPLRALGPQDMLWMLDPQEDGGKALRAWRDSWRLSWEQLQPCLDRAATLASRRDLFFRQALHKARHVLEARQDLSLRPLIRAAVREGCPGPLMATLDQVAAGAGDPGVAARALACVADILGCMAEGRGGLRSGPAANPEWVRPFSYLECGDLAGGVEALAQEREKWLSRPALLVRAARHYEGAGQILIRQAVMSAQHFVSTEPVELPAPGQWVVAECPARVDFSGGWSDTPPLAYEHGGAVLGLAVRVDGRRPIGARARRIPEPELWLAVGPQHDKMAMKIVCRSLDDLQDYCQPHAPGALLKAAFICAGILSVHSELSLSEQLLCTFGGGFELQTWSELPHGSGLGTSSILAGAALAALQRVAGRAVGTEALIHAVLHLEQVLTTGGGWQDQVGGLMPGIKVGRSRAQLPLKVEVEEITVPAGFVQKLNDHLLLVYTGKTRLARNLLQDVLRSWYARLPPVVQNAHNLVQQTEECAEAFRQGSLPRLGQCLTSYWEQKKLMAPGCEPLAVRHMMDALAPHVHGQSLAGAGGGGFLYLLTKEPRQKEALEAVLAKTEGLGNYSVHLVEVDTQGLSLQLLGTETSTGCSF
Protocol: Increasing concentrations of the metal ions shown were added to incubations of the purified enzyme with ^3 H-fucose and ATP, and the formation of fucose-1-P was measured as described below. Metal ions tested were as follows: Mg^++, filled circles; Fe^++, filled diamonds; Co^++, filled triangles; Mn^++, filled squares.
(§1) Fucokinase activity was assayed by measuring the production of L-fucose-1-Pfrom [^3 H]L-fucose and ATP. The incubation mixtures contained the following components (final concentrations) in a total volume of 150 μl: L-fucose, 0.1 mM; ATP, 5 mM; MgSO4, 5 mM; Tris-HCl buffer, pH 8.0, 65 mM; and various amounts of enzyme at the different stages of purification. Incubations were at 37° C. for 10 minutes, and reactions were terminated by heating the reaction mixtures in a boiling water bath for 1 minute. The incubation mixtures were then applied to a column of DE-52 contained in a Pasteur pipette, and the column was washed with at least 5 column volumes of 10 mM (NH4)HCO3 to remove the unbound material. The [^3 H]fucose-1-P was then eluted with 500 mM (NH4)HCO3. Aliquots of the eluates were assayed for their radioactive content by subjecting a portion to scintillation counting.
Co^++ and Mn^++ were also stimulatory with maximum activity occurring at about 3 to 5 mM, but the maximum activity was only about 25% to 33% of that observed with Mg^++.

pig kidney fucokinase [2] = biological target: T1, pig kidney fucokinase; test: Specificity of fucokinase for phosphate donor (nucleotides); assay type: biochemical; conditions: nucleotide added at 1 mM
Protocol: as §1
The specificity of the nucleoside triphosphate was also examined by testing the ability of a variety of nucleotides to serve as phosphate donors in the phosphorylation of [^3 H]L-fucose. […] In addition, no activity is observed with any nucleoside diphosphates or monophosphates.

pig kidney fucokinase [3] = biological target: T1, pig kidney fucokinase; test: Sugar specificity of purified fucokinase (radiolabeled sugars as phosphate acceptors); assay type: biochemical; conditions: for Specific Activity: radiolabeled sugar 100 μM as phosphate acceptor
Protocol: as §1
The specificity of the kinase for various sugar substrates was examined in two different ways. In the first set of experiments, various radiolabeled sugars were tested as phosphate acceptors for the purified enzyme using the ion-exchange chromatography method for assay of activity. […] D-Arabinose, which has the same configuration at carbons 1 through 4 as L-fucose, was also a reasonable substrate for phosphorylation, and was about 10% as effective as L-fucose. On the other hand, all of the other sugars were ineffective as phosphate acceptors.

pig kidney fucokinase [4] = biological target: T1, pig kidney fucokinase; test: Inhibition of [3H]L-fucose phosphorylation by unlabeled monosaccharides; assay type: biochemical; conditions: for Relative Activity (%): unlabeled monosaccharide 500 μM, radiolabeled L-fucose substrate 100 μM; for inhibition of phosphorylation of [3H]L-fucose (in words): unlabeled sugar 500 μM
Protocol: as §1
Although it was possible to get a reasonable assessment of the sugar specificity of the kinase from the above experiment, it was not possible to test sugars such as D-fucose, since these sugars are not available in radioactive form. Thus, these unlabeled sugars were tested for their ability to inhibit the phosphorylation of [^3 H]L-fucose. The rationale for this experiment is that a sugar that inhibits the phosphorylation of L-fucose would probably compete with L-fucose for the phosphorylation (i.e., active) site.

[5] = system: pig liver L-fucokinase preparation; conditions: cited from earlier work
[6] = biological target: T2, pig kidney fucokinase (110 kDa band) (Sus scrofa, UniProt I3LTC2); test: Photoaffinity labeling of the fucokinase with 8-azido-ATP[32P]; assay type: binding; conditions: incubation with probe, exposure to UV light
T2 construct: L-Fucokinase was purified to apparent homogeneity from the cytosolic fraction of pig kidney; from tissue; host or cells: pig kidney, cytosolic fraction
T2 sequence (I3LTC2 1-1083): T1 sequence (I3LTC2 1-1083)
Protocol: The purified enzyme was incubated for 20 seconds with azido-ATP[^32 P], and the mixture was exposed to UV for 90 seconds. The reaction was stopped by adding loading buffer and the mixture subjected to SDS-PAGE. Radioactive bands were detected by exposure to film. Lanes are as follows: Lane 1, Probe+enzyme, but no UV; Lane 2, Probe+enzyme+UV; Lanes 3 through 6. Probe+enzyme+0.3, 0.6, 0.9, and 1.2 mM ATP+exposure to UV light; lanes 7 and 8, 0.6 and 1.2 mM GTP+probe+exposure to UV light: lanes 9 and 10, 0.6 and 1.2 mM ITP+probe+exposure to UV light. In lanes 11 and 12, the enzyme was incubated with N3 -GTP[^32 P ] and then exposed to UV light (lane 12) or not exposed to UV light (lane 11). Lane 13 is a control of enzyme+N3 -ATP[^32 P]+exposure to UV light.
Enzyme, at various stages of purity, was mixed with 8-azido-ATP[^32 P] in buffer, and allowed to incubate for 20 sec. in an ice bath. 8-Azido-ATP[^32 P] was prepared as previously described (16). After incubation, the reaction mixture was exposed to short wave UV light for about 90 sec. to activate the azido group, and the protein was subjected to SDS gel electrophoresis to separate the proteins. The gels were dried and exposed to film to locate the radioactive bands and were also stained with Coomassie blue to locate the various proteins. The specificity of the labeling was determined by examining the effect of various concentrations of unlabeled ATP or other nucleotides on the labeling of the protein by N3 -ATP[^32 P]. Various controls were also run, such as one in which exposure to UV was omitted.
Lanes 11-13 of FIG. 3 show the results of another experiment designed to determine whether 8-N3 -GTP[^32 P] could label the fucokinase. […] These experiments indicate that the fucokinase is quite specific for ATP.

Compound: [Hg+2] [Hg^++]
stimulation of enzyme activity by metal ion (in words) (pig kidney fucokinase [1]): inactive
effect on activity when added to incubations containing Mg++ (in words) (pig kidney fucokinase [1]): completely inhibited activity

Compound: Nc1ncnc2c1ncn2[C@@H]1O[C@H](COP(=O)(O)O)[C@@H](O)[C@H]1O [AMP]
activity as phosphate donor (in words) (pig kidney fucokinase [2]): Inactive

Compound: O=c1ccn([C@@H]2O[C@H](COP(=O)(O)O)[C@@H](O)[C@H]2O)c(=O)[nH]1 [UMP]
activity as phosphate donor (in words) (pig kidney fucokinase [2]): Inactive

Compound: O=C[C@@H](O)[C@H](O)[C@H](O)CO [D-arabinose]
activity as phosphate acceptor (in words) (pig kidney fucokinase [3]; purified enzyme): active as phosphate acceptors
rate of phosphorylation relative to L-fucose (pig kidney fucokinase [3]; purified enzyme, sugar as phosphate acceptor): about 10%
Specific Activity (pig kidney fucokinase [3]): 1.1 nmole/mg protein
Relative Activity (%) (pig kidney fucokinase [4]): 80%
inhibition of phosphorylation of [3H]L-fucose (in words) (pig kidney fucokinase [4]): inhibited although considerably less so than the L-fucose

Compound: [Cu+2] [Cu^++]
stimulation of enzyme activity by metal ion (in words) (pig kidney fucokinase [1]): inactive
effect on activity when added to incubations containing Mg++ (in words) (pig kidney fucokinase [1]): completely inhibited activity

Compound: Nc1ncnc2c1ncn2[C@@H]1O[C@H](COP(=O)(O)OP(=O)(O)O)[C@@H](O)[C@H]1O [ADP]
activity as phosphate donor (in words) (pig kidney fucokinase [2]): Inactive

Compound: Nc1ccn([C@@H]2O[C@H](COP(=O)(O)OP(=O)(O)O)[C@@H](O)[C@H]2O)c(=O)n1 [CDP]
activity as phosphate donor (in words) (pig kidney fucokinase [2]): Inactive

Continued, in another order:

Specific Activity (pig kidney fucokinase [3]): 0 nmole/mg protein
Relative Activity (%) (pig kidney fucokinase [4]): 96%
Compound: O=C[C@H](O)[C@H](O)[C@H](O)CO [D-ribose]
phosphorylation of sugar by the about 70-fold purified preparation (in words) [5]: considerable activity for phosphorylating

labeling of the 110 kDa protein by photoprobe (in words) [6]: did not give rise to labeled protein
Compound: 8-N3 -GTP[^32 P]

Relative Activity (%) (pig kidney fucokinase [4]): 102%
Compound: C[C@@H](O)[C@@H](O)[C@H](O)[C@H](O)C=O [D-rhamnose]

stimulation of enzyme activity by metal ion (in words) (pig kidney fucokinase [1]): gave the best stimulation
Compound: [Mg+2] [Mg^++]

activity as phosphate donor (in words) (pig kidney fucokinase [2]): Inactive
Compound: Nc1nc2c(ncn2[C@@H]2O[C@H](COP(=O)(O)O)[C@@H](O)[C@H]2O)c(=O)[nH]1 [GMP]

stimulation of enzyme activity by metal ion (in words) (pig kidney fucokinase [1]): inactive
effect on activity when added to incubations containing Mg++ (in words) (pig kidney fucokinase [1]): completely inhibited activity
Compound: [Zn+2] [Zn^++]

Specific Activity (pig kidney fucokinase [3]): 0 nmole/mg protein
Relative Activity (%) (pig kidney fucokinase [4]): 103%
Compound: O=C[C@H](O)[C@@H](O)[C@H](O)CO [D-xylose]

Relative Activity (%) (pig kidney fucokinase [4]): 102%
inhibition of phosphorylation of [3H]L-fucose (in words) (pig kidney fucokinase [4]): ineffective as inhibitors
Compound: C[C@@H](O)[C@H](O)[C@H](O)[C@@H](O)C=O [D-fucose]
